Source: patent US12358983B2, “Combination of anti CD19 antibody with a BCL-2 inhibitor and uses thereof” (Incyte Corporation, priority 2016, dated 2025)
Marks after values point to notes of the source that are not given here.

Experiments:
MEC-1 cells = experiment: Cytotoxicity (ADCC assay with NK effector cells) of MOR00208 and venetoclax alone and in combination in MEC-1 cells; assay type: cell-based
Excerpt: Cell lines tested: MEC-1 cells (DSMZ# ACC497). Culture conditions of cell lines used are according to supplier's information. Cell Medium: lscove's Modified Dulbecco's Medium (IMDM), Invitrogen, Cat No.: 31980; RPMI1640, Invitrogen, Cat No.: 31870; GlutaMAX, Invitrogen, CAT No.: 35050; FCS: Sigma CAT No.: F7524 LOT No.: 111M3396. NKs: RPMI1640, with GlutaMAX, Invitrogen, Cat No.: 31870, 10% FCS; Biocoll: Biochrome AG CAT No.: L6115 LOT No.: 0034D; MACS NK cell isolation kit: Miltenyi Biotec CAT No.: 130-092-657 LOT No.: 5150402327; venetoclax: Selleck Chem. CAT No.: S8048 LOT No.: S804803; FCS: Sigma CAT No.: F7524 LOT No.: 111M3396; and RefmAb33 (anti-RSV) with same Fc region as MOR00208.
The cytotoxic potential of MOR00208 and venetoclax alone and in combination were tested in the MEC-1 cell line (CLL). Target cell killing is measured using the following parameters: venetoclax mono treatment at concentrations of 3 μM, 6.5 μM, and 10 μM; MOR00208 mono treatment at concentrations of 0.01 pM, 0.1 pM, 1 pM, 10 pM, 100 pM and 10 nM, and the combination treatment of the listed venetoclax and MOR00208 concentrations. The following are used as controls: RefnnAb33, NK cells alone, MEC-1 cells alone or DMSO. In the venetoclax mono groups as well as in the MOR00208+venetoclax combination groups, target cells were pretreated with venetoclax or with DMSO control for 24 hours followed by removal of the dead cells prior to the ADCC assay. A dead cell removal kit was used to remove cells killed by the cytotoxic effect of venetoclax. The dead cell removal kit was implemented to mimick the removal of dead cells that also occurs in vivo and to prevent false negative interference of the dead cells with the subsequent ADCC assay. For the ADCC assay, target cells are counted and stained using CFSE at a final concentration of 1 μg/mL. For the control group, i.e. DMSO treated target cells, the effector: target (E:T) cell ratio was adjusted to 2:1, i.e. 1×10E6/nnL effector cells (NK cells) and 5×10E5/mL target cells (MEC-1 cells). […] The ADCC assays were performed as follows: using 96 well plates, 100 μL of MEC-1 target cell suspension was added per well, followed by 100 μL NK effector cell suspension per well. Mixed cell suspensions were centrifuged and resuspended in 100 μL antibody containing medium or the according control solution. The antibodies were diluted in a range of 10 nM-0.01 pM (corresponds to 1.5 μg/mL-1.5 pg/mL) in medium. The ADCC assays were incubated for 2 hours in a CO2-incubator at 37° C. After 10 minutes incubation on ice, 50 μL DAPI solution was added to each well (final concentration 1 μg/mL) and incubated for additional 10 minutes on ice. The ADCC measurements were performed on a BD FACSVerse instrument. Dead target cells were identified as DAPI positive cells.
Combination Index (CI) calculations are completed in order to determine synergy of the combination of the exemplified anti-CD19 antibody and venetoclax as compared to MOR00208 and venetoclax alone. Such calculations are described in Ting-Chao Chou, Theoretical Basis, Experimental Design, and Computerized Simulation of Synergism and Antagonism in Drug Combination Studies, Pharmacol Rev 58:621-681 (2006), which is incorporated by reference in its entirety and Chou TC, Talalay P, Quantitative analysis of dose-effect relationships: the combined effects of multiple drugs or enzyme inhibitors. Adv Enzyme Regul 22: 27-55 (1984), which is incorporated by reference in its entirety. The methods of Chou-Talalay are carried out using the CI-isobol method.
The median-effect equation models the effect of an inhibitor (such as a drug) as Fa/Fu=(D/D50)^m, where D is the dose, Fa and Fu is the fraction of the system affected and unaffected by the dose D (Fa+Fu=1); D50 is the dose producing the median effect (e.g. IC50, ED50, LD50). The constant m determines the shape of the dose-effect curve.

[1] = test system: TOLEDO human lymphoma cell tumors; experiment: Subcutaneous human lymphoma cell xenograft model in SCID mice; details: for Median Survival (Days Post-Randomization): humane endpoint tumor volume 2000 mm3; for Median % Increase in Doubling Time (IDT) / Median % Increase in Lifespan (ILS): vs. PEP/PBS Control
Description: Toledo cell line and culture medium were purchased and provided by Oncodesign. […] The cells are adherent to plastic flasks.
A statistical test (analysis of variance, ANOVA) was performed to test for homogeneity between groups. MOR208 was injected intraperitoneally (IP) into the peritoneal cavity of mice. Combined substance was administered by oral gavage (per os, PO) via a gavage tube.
The treatment schedule initiated at D23 was as follows:
Animals from group 1 received one daily PO administration of PEP and one IP injection twice a week of PBS.
Animals from group 4 received one IP injection of MOR208 at 11 mg/kg/inj on D23, D27, D30, D34, D37 and D41 followed by a single IP injection of MOR208 at 11 mg/kg/inj on D48 (twice a week).
The viability and behavior were recorded every day. Body weights and tumor volume were measured twice a week. The length and width of the tumor were measured twice a week with calipers and the volume of the tumor was estimated by the formula:

CC1(C)CCC(CN2CCN(c3ccc(C(=O)NS(=O)(=O)c4ccc(NCC5CCOCC5)c([N+](=O)[O-])c4)c(Oc4cnc5[nH]ccc5c4)c3)CC2)=C(c2ccc(Cl)cc2)C1 [Venetoclax, 4-(4-{[2-(4-Chlorophenyl)-4,4-dimethyl-1-cyclohexen-1-yl]methyl}-1-piperazinyl)-N-({3-nitro-4-[(tetrahydro-2H-pyran-4-ylmethyl)amino]phenyl}sulfonyl)-2-(1H-pyrrolo[2,3-b]pyridin-5-yloxy)benzamide, reference compound]
Theoretical Venetoclax Dose (MEC-1 cells; Exp 1, same effect as MOR00208 1.50E+00 μg/mL + venetoclax 3.0 μM): 16.0 µM
Theoretical Venetoclax Dose (MEC-1 cells; Exp 1, same effect as MOR00208 1.50E+00 μg/mL + venetoclax 6.5 μM): 23.9 µM
Theoretical Venetoclax Dose (MEC-1 cells; Exp 1, same effect as MOR00208 1.50E+00 μg/mL + venetoclax 10.0 μM): 28.4 µM
Theoretical Venetoclax Dose (MEC-1 cells; Exp 1, same effect as MOR00208 1.50E−02 μg/mL + venetoclax 3.0 μM): 15.1 µM
Theoretical Venetoclax Dose (MEC-1 cells; Exp 1, same effect as MOR00208 1.50E−02 μg/mL + venetoclax 6.5 μM): 21.9 µM
Theoretical Venetoclax Dose (MEC-1 cells; Exp 1, same effect as MOR00208 1.50E−02 μg/mL + venetoclax 10.0 μM): 23.0 µM
Theoretical Venetoclax Dose (MEC-1 cells; Exp 1, same effect as MOR00208 1.50E−03 μg/mL + venetoclax 3.0 μM): 10.4 µM
Theoretical Venetoclax Dose (MEC-1 cells; Exp 1, same effect as MOR00208 1.50E−03 μg/mL + venetoclax 6.5 μM): 12.7 µM
Theoretical Venetoclax Dose (MEC-1 cells; Exp 1, same effect as MOR00208 1.50E−03 μg/mL + venetoclax 10.0 μM): 14.0 µM
Theoretical Venetoclax Dose (MEC-1 cells; Exp 1, same effect as MOR00208 1.50E−04 μg/mL + venetoclax 3.0 μM): 7.2 µM
Theoretical Venetoclax Dose (MEC-1 cells; Exp 1, same effect as MOR00208 1.50E−04 μg/mL + venetoclax 6.5 μM): 8.5 µM
Theoretical Venetoclax Dose (MEC-1 cells; Exp 1, same effect as MOR00208 1.50E−04 μg/mL + venetoclax 10.0 μM): 8.9 µM
Theoretical Venetoclax Dose (MEC-1 cells; Exp 1, same effect as MOR00208 1.50E−05 μg/mL + venetoclax 3.0 μM): 6.3 µM
Theoretical Venetoclax Dose (MEC-1 cells; Exp 1, same effect as MOR00208 1.50E−05 μg/mL + venetoclax 6.5 μM): 6.9 µM
Theoretical Venetoclax Dose (MEC-1 cells; Exp 1, same effect as MOR00208 1.50E−05 μg/mL + venetoclax 10.0 μM): 7.4 µM
Theoretical Venetoclax Dose (MEC-1 cells; Exp 1, same effect as MOR00208 1.50E−06 μg/mL + venetoclax 10.0 μM): 6.4 µM
Actual Venetoclax Effect (MEC-1 cells; Exp 1, venetoclax 3.0 μM): 8.9 % dead cells
Actual Venetoclax Effect (MEC-1 cells; Exp 1, venetoclax 6.5 μM): 17.7 % dead cells
Actual Venetoclax Effect (MEC-1 cells; Exp 1, venetoclax 10.0 μM): 38.8 % dead cells
Theoretical Venetoclax Dose (MEC-1 cells; Exp 2, same effect as MOR00208 1.50E+00 μg/mL + venetoclax 3.0 μM): 11.2 µM
Theoretical Venetoclax Dose (MEC-1 cells; Exp 2, same effect as MOR00208 1.50E+00 μg/mL + venetoclax 6.5 μM): 12.5 µM
Theoretical Venetoclax Dose (MEC-1 cells; Exp 2, same effect as MOR00208 1.50E+00 μg/mL + venetoclax 10.0 μM): 17.6 µM
Theoretical Venetoclax Dose (MEC-1 cells; Exp 2, same effect as MOR00208 1.50E−02 μg/mL + venetoclax 3.0 μM): 10.6 µM
Theoretical Venetoclax Dose (MEC-1 cells; Exp 2, same effect as MOR00208 1.50E−02 μg/mL + venetoclax 6.5 μM): 11.9 µM
Theoretical Venetoclax Dose (MEC-1 cells; Exp 2, same effect as MOR00208 1.50E−02 μg/mL + venetoclax 10.0 μM): 15.0 µM
Theoretical Venetoclax Dose (MEC-1 cells; Exp 2, same effect as MOR00208 1.50E−03 μg/mL + venetoclax 3.0 μM): 8.6 µM
Theoretical Venetoclax Dose (MEC-1 cells; Exp 2, same effect as MOR00208 1.50E−03 μg/mL + venetoclax 6.5 μM): 9.4 µM
Theoretical Venetoclax Dose (MEC-1 cells; Exp 2, same effect as MOR00208 1.50E−03 μg/mL + venetoclax 10.0 μM): 11.3 µM
Theoretical Venetoclax Dose (MEC-1 cells; Exp 2, same effect as MOR00208 1.50E−04 μg/mL + venetoclax 3.0 μM): 7.3 µM
Theoretical Venetoclax Dose (MEC-1 cells; Exp 2, same effect as MOR00208 1.50E−04 μg/mL + venetoclax 6.5 μM): 7.9 µM
Theoretical Venetoclax Dose (MEC-1 cells; Exp 2, same effect as MOR00208 1.50E−04 μg/mL + venetoclax 10.0 μM): 8.8 µM
Theoretical Venetoclax Dose (MEC-1 cells; Exp 2, same effect as MOR00208 1.50E−05 μg/mL + venetoclax 3.0 μM): 6.6 µM
Theoretical Venetoclax Dose (MEC-1 cells; Exp 2, same effect as MOR00208 1.50E−05 μg/mL + venetoclax 6.5 μM): 7.1 µM
Theoretical Venetoclax Dose (MEC-1 cells; Exp 2, same effect as MOR00208 1.50E−05 μg/mL + venetoclax 10.0 μM): 8.0 µM
Theoretical Venetoclax Dose (MEC-1 cells; Exp 2, same effect as MOR00208 1.50E−06 μg/mL + venetoclax 6.5 μM): 6.7 µM
Theoretical Venetoclax Dose (MEC-1 cells; Exp 2, same effect as MOR00208 1.50E−06 μg/mL + venetoclax 10.0 μM): 7.2 µM
Actual Venetoclax Effect (MEC-1 cells; Exp 2, venetoclax 3.0 μM): 19.9 % dead cells
Actual Venetoclax Effect (MEC-1 cells; Exp 2, venetoclax 6.5 μM): 32.4 % dead cells
Actual Venetoclax Effect (MEC-1 cells; Exp 2, venetoclax 10.0 μM): 73.9 % dead cells
Theoretical Venetoclax Dose (MEC-1 cells; Exp 3, same effect as MOR00208 1.50E+00 μg/mL + venetoclax 3.0 μM): 16.6 µM
Theoretical Venetoclax Dose (MEC-1 cells; Exp 3, same effect as MOR00208 1.50E+00 μg/mL + venetoclax 6.5 μM): 29.4 µM
Theoretical Venetoclax Dose (MEC-1 cells; Exp 3, same effect as MOR00208 1.50E+00 μg/mL + venetoclax 10.0 μM): 31.0 µM
Theoretical Venetoclax Dose (MEC-1 cells; Exp 3, same effect as MOR00208 1.50E−02 μg/mL + venetoclax 3.0 μM): 15.4 µM
Theoretical Venetoclax Dose (MEC-1 cells; Exp 3, same effect as MOR00208 1.50E−02 μg/mL + venetoclax 6.5 μM): 22.3 µM
Theoretical Venetoclax Dose (MEC-1 cells; Exp 3, same effect as MOR00208 1.50E−02 μg/mL + venetoclax 10.0 μM): 31.0 µM
Theoretical Venetoclax Dose (MEC-1 cells; Exp 3, same effect as MOR00208 1.50E−03 μg/mL + venetoclax 3.0 μM): 10.2 µM
Theoretical Venetoclax Dose (MEC-1 cells; Exp 3, same effect as MOR00208 1.50E−03 μg/mL + venetoclax 6.5 μM): 12.2 µM
Theoretical Venetoclax Dose (MEC-1 cells; Exp 3, same effect as MOR00208 1.50E−03 μg/mL + venetoclax 10.0 μM): 18.4 µM
Theoretical Venetoclax Dose (MEC-1 cells; Exp 3, same effect as MOR00208 1.50E−04 μg/mL + venetoclax 3.0 μM): 7.9 µM
Theoretical Venetoclax Dose (MEC-1 cells; Exp 3, same effect as MOR00208 1.50E−04 μg/mL + venetoclax 6.5 μM): 9.0 µM
Theoretical Venetoclax Dose (MEC-1 cells; Exp 3, same effect as MOR00208 1.50E−04 μg/mL + venetoclax 10.0 μM): 11.6 µM
Theoretical Venetoclax Dose (MEC-1 cells; Exp 3, same effect as MOR00208 1.50E−05 μg/mL + venetoclax 3.0 μM): 6.4 µM
Theoretical Venetoclax Dose (MEC-1 cells; Exp 3, same effect as MOR00208 1.50E−05 μg/mL + venetoclax 6.5 μM): 7.5 µM
Theoretical Venetoclax Dose (MEC-1 cells; Exp 3, same effect as MOR00208 1.50E−05 μg/mL + venetoclax 10.0 μM): 9.6 µM
Theoretical Venetoclax Dose (MEC-1 cells; Exp 3, same effect as MOR00208 1.50E−06 μg/mL + venetoclax 6.5 μM): 6.4 µM
Theoretical Venetoclax Dose (MEC-1 cells; Exp 3, same effect as MOR00208 1.50E−06 μg/mL + venetoclax 10.0 μM): 8.4 µM
Actual Venetoclax Effect (MEC-1 cells; Exp 3, venetoclax 3.0 μM): 7.7 % dead cells
Actual Venetoclax Effect (MEC-1 cells; Exp 3, venetoclax 6.5 μM): 16.3 % dead cells
Actual Venetoclax Effect (MEC-1 cells; Exp 3, venetoclax 10.0 μM): 48.1 % dead cells
Median Tumor Doubling Time ([1]; ABT-199 20 mg/kg p.o. daily): 9.6^a Days
Median Survival (Days Post-Randomization) ([1]; ABT-199 20 mg/kg p.o. daily): 30.0^a Days
Median % Increase in Doubling Time (IDT) ([1]; ABT-199 20 mg/kg p.o. daily): 44%
Median % Increase in Lifespan (ILS) ([1]; ABT-199 20 mg/kg p.o. daily): 43%
Median Tumor Doubling Time ([1]; ABT-199 40 mg/kg p.o. daily): 11.1^a Days
Median Survival (Days Post-Randomization) ([1]; ABT-199 40 mg/kg p.o. daily): 36.2^a Days
Median % Increase in Doubling Time (IDT) ([1]; ABT-199 40 mg/kg p.o. daily): 64%
Median % Increase in Lifespan (ILS) ([1]; ABT-199 40 mg/kg p.o. daily): 72%
